Results on six compounds are retold here after PMC4124873, “Photo-antagonism of the GABAA receptor” (Nature Communications, 2014).

Test [1] deals with T1, α1β2γ2 (wt) GABAA receptor (Mus musculus, UniProt P62812+P63137). Also noted: expressed in transfected cells; host or cells: HEK cells. The note with it: α1β2γ2, GABA EC50 response; cited from earlier work.
Test [2] deals with T2, α1β2γ2 GABAA receptor (Mus musculus, UniProt P62812+P63137). In words: Schild analysis of competitive antagonism in HEK cells.
Test [3] deals with T2, α1β2γ2 GABAA receptor. The settings on record: for irreversible reduction/block of GABA current post-UV: one cycle of UV.
The target in test [4] is T3, α1R119Qβ2γ2 GABAA receptor (Mus musculus, UniProt P62812+P63137, R146Q). The settings on record: for Max inhibition: α1R119Qβ2γ2; for potency increase compared with wild type: α1R119Qβ2γ2 vs wild type.
In test [5] the target is T1, α1β2γ2 (wt) GABAA receptor. The note with it: for Max inhibition: inhibition of GABA EC50 response, wt.
Test [6] has as its target T4, α1β2R207Qγ2 GABAA receptor (Mus musculus, UniProt P62812+P63137, R231Q).
In test [7] the target is T5, α1R119Qβ2R207Qγ2 GABAA receptor (Mus musculus, UniProt P62812+P63137, R146Q/R231Q).
For test [8], the target named is T6, α1β2E155Q+R207Qγ2 GABAA receptor (Mus musculus, UniProt P62812+P63137, E179Q/R231Q).
The target in test [9] is α1β2E155Qγ2 GABAA receptor (Mus musculus, UniProt P62812+P63137, E179Q). Briefly: cell-based.
Test [10] has as its target T4, α1β2R207Qγ2 GABAA receptor. Briefly: cell-based.
In test [11] the target is T5, α1R119Qβ2R207Qγ2 GABAA receptor. Briefly: cell-based.
Test [12] addresses α1R119Qβ2E155Qγ2 GABAA receptor (Mus musculus, UniProt P62812+P63137, E179Q/R146Q). Briefly: cell-based.
Test [13] concerns the target T7, α1R119Qβ2E155Q+R207Qγ2 GABAA receptor (Mus musculus, UniProt P62812+P63137, E179Q/R146Q/R231Q).
Test [14] has as its target T3, α1R119Qβ2γ2 GABAA receptor. In words: cell-based.
For test [15], the target named is T6, α1β2E155Q+R207Qγ2 GABAA receptor. Briefly: cell-based.
Test [16] concerns the target T7, α1R119Qβ2E155Q+R207Qγ2 GABAA receptor. Briefly: cell-based.
Test [17] deals with T1, α1β2γ2 (wt) GABAA receptor. Briefly: cell-based.
In test [18] the target is T8, α1R84Qβ2γ2 GABAA receptor (Mus musculus, UniProt P62812+P63137, R111Q). Briefly: cell-based.
For test [19], the target named is α1β2D162+163Nγ2 GABAA receptor (Mus musculus, UniProt P62812+P63137, D186N/D187N). Briefly: cell-based.
In test [20] the target is T9, α1R84+119Qβ2D162+163Nγ2 GABAA receptor (Mus musculus, UniProt P62812+P63137, D186N/D187N/R111Q/R146Q). In words: cell-based. The note with it: HEK293, read-out: maximum GABA current after UV in the presence of GZ-B1, % of control.
For test [21], the target named is T2, α1β2γ2 GABAA receptor. Briefly: cell-based. The note with it: HEK293, read-out: maximum GABA current after UV in the presence of GZ-B1, % of control.
Test [22] deals with synaptic GABAA receptors of cerebellar granule cells. In words: sIPSCs in cultured cerebellar granule cells after UV photoactivation. The settings on record: 10 μM GZ-B1, one UV cycle.
Test [23] has as its target T8, α1R84Qβ2γ2 GABAA receptor.
Test [24] deals with α1β2D162N,D163Nγ2 GABAA receptor (Mus musculus, UniProt P62812+P63137, D186N/D187N). In words: cell-based. The settings on record: HEK293, read-out: maximum GABA current after UV in the presence of GZ-B1, % of control.
In test [25] the target is T3, α1R119Qβ2γ2 GABAA receptor. Briefly: cell-based. The note with it: HEK293, read-out: maximum GABA current after UV in the presence of GZ-B1, % of control.
In test [26] the target is T10, α1R84Qβ2R207Qγ2 GABAA receptor (Mus musculus, UniProt P62812+P63137, R111Q/R231Q). Briefly: cell-based.
Test [27] has as its target T8, α1R84Qβ2γ2 GABAA receptor. Briefly: cell-based. The note with it: HEK293, read-out: maximum GABA current after UV in the presence of GZ-B1, % of control.
In test [28] the target is T9, α1R84+119Qβ2D162+163Nγ2 GABAA receptor. Briefly: cell-based.
For test [29], the target named is T10, α1R84Qβ2R207Qγ2 GABAA receptor. The note with it: α1R84Qβ2R207Qγ2 double mutant.
The target in test [30] is T11, α4β3δ GABAA receptor (Mus musculus, UniProt P63080+Q9D6F4).
T11 construct: expressed in transfected cells; host or cells: HEK cells
In words: GZ-B1 inhibition of GABA EC50 responses, receptor subtype selectivity in HEK cells. Format: cell-based, murine. The note with it: GABA EC50 response, ANOVA Dunnett. The text has this:
(§1) […]; pH 7.4 (adjusted with 1 M NaOH).

The target of test [31] is T12, α3β3γ2 GABAA receptor (Mus musculus, UniProt P26049+P63080).
T12 construct: expressed in transfected cells; host or cells: HEK cells
The description is as above. Format: cell-based, murine. The settings on record: α3β3γ2, GABA EC50 response, ANOVA Dunnett.
Description: as §1

[32] abbreviates: 10 μM GABA, 10 μM antagonist, one cycle of 10 UV flashes, 3–5 min wash.
The mark [33] stands for this setting: IC50, inhibition of GABA EC50 response, α1β2R207Qγ2.
The mark [34] stands for this setting: IC50, inhibition of GABA EC50 response, α1R119Qβ2γ2.
[35] abbreviates: IC50, α1R119Qβ2γ2, as printed in text.

“And” between values parts separate entries of the source, which are not always exact repeats. Equal values may be shown once. Read-outs that look alike come from different tables or passages of the source.

For orientation: Kb means the equilibrium dissociation constant of an antagonist, usually derived from a functional assay. A high value points to a less potent antagonist. On to `N=c1ccc(-c2ccc(OCc3ccccc3)cc2)nn1CCCC(=O)O` [GZ-i1], for which the “increase in potency over gabazine” value in [1] was “more than 30 fold”. Further, in test [2], the Kb stood at 13 nM. In test [2] (Schild analysis), the “increase in affinity (Ki) over gabazine” value stood at 20 fold.

As for `[N-]=[N+]=Nc1ccc(COc2ccc(-c3ccc(=N)n(CCCC(=O)O)n3)cc2)cc1` [GZ-A1], the “GABA-induced current post-UV, normalized to control” value in test [3] is 71.3±6.8%. The “irreversible reduction/block of GABA current post-UV” value (“irreversible reduction/block” below) in test [3] (10 μM antagonist) is recorded as ~ 30%. For the same compound, the antagonist dissociation constant (Kb) in [2] is 44 nM.

Broadly, the IC50 is the midpoint of a concentration-inhibition curve. Lower therefore signals greater potency. As for `COc1ccc(-c2ccc(=N)n(CCCC(=O)O)n2)cc1` [gabazine, reference compound], the Max inhibition came to 100% in test [4]; 100% in test [5]; 100% in test [6]; 100% in test [7]; 100% in [8]; 94 ± 1% in test [13]. Also, the “potency increase compared with wild type” value in [4] is recorded as ~ 2 fold. Moreover, the “GABA-induced current post-UV, normalized to control” value in test [3] (setting [32]) worked out at 101.6±3.3%. Also, the Kb in test [2] came to 300 nM. Also, the IC50 in test [9] was above 100000 nM; in test [10] (setting [33]), 1710 nM; in test [11], 3750 nM; in [12] it was above 100000 nM; in test [14] (setting [34]) it was 188 nM; in [14] (setting [35]), 188 nM. In addition, the concentration for half-maximal inhibition (IC50) in test [15] amounted to 1380 nM; in [16], 2260 nM; in test [17], 349 nM.

As for `N=c1ccc(-c2ccc(OCc3ccc(C(=O)c4ccccc4)cc3)cc2)nn1CCCC(=O)O` [GZ-B1], the IC50 in test [18] (IC50, inhibition of GABA EC50 response) is 4220 nM; in test [18] (pIC50, inhibition of GABA EC50 response), 4230 nM; in [19], 13500 nM; in test [9] it was above 100000 nM; in test [26], 182000 nM; in test [10] (setting [33]), 487 nM. Also, the IC50 in test [10] (IC50, α1β2R207Qγ2, as printed in text) is 487 nM; in [11] it was 418 nM; in [28], 258000 nM; in test [12], above 100000 nM; in [14] (setting [34]), 71.5 nM; in test [14] (setting [35]) it was 72 nM. In addition, the half-maximal inhibitory concentration (IC50) was 470 nM in test [15], 426 nM in test [16] and 155 nM in [17]. The Max inhibition worked out at 100% in test [4]; 100% in [5]; 100% in [23]; 83 ± 3% in [6]; 75 ± 2% in [7]; 100% in test [8]. Further, the Max inhibition in test [13] was 72 ± 4%. Further, the “potency increase compared with wild type” value in [4] is on record as ~ 2 fold. The remaining activity at 100 µM in test [20] was 97 ± 3.4%; in test [24], 71 ± 2.6%; in [27] it was 84 ± 4.9%. Besides, the “GABA-induced current post-UV, normalized to control” value in test [3] (setting [32]) stood at 50.8±1.8%. The “irreversible reduction/block” value in [3] (10 μM antagonist) is recorded as ~ 50%. In addition, the remaining activity at 10 µM came out at 62 ± 4.2% in test [21] and 73 ± 2.6% in [25]. Further, the “reduction in synaptic current (sIPSC) amplitude” value in test [22] was at most 90%. The Kb in test [2] came out at 153 nM. In addition, the “reduction (loss) of GZ-B1 potency” value in test [29] is 1,000 fold and > 1,000 fold. Moreover, the “GZ-B1 potency (IC50) compared with α1β3γ2” value in test [30] and in test [31] was “significantly lower potencies” throughout.

Regarding `N=c1ccc(-c2ccc(OCc3ccc(C4(C(F)(F)F)N=N4)cc3)cc2)nn1CCCC(=O)O` [GZ-D1], in test [3] (setting [32]), the “GABA-induced current post-UV, normalized to control” value worked out at 79.0±4.5%. Moreover, in [3] (10 μM antagonist), the “irreversible reduction/block” value is ~ 20%. Besides, in test [2], the Kb was determined as 132 nM.

For `N=c1ccc(-c2ccc(C(=O)c3ccccc3)cc2)nn1CCCC(=O)O` [GZ-B2], the “GABA-induced current post-UV, normalized to control” value in test [3] (setting [32]) is on record as 98.3±4.2%. Besides, the “relative potency compared with gabazine” value in test [5] (α1β2γ2, GABA EC50 response) was “equipotent”. Moreover, the Kb in test [2] turned out to be 318 nM.
